PMC6274368 (Molecules, 2016)

Legend:
[1] = target: T1, human URAT1 (Homo sapiens, UniProt Q96S37); conditions: for Fold more potent than parent lesinurad (URAT1 inhibition): ratio of IC50 vs lesinurad, in vitro URAT1 inhibitory assay
T1 sequence (Q96S37 1-553): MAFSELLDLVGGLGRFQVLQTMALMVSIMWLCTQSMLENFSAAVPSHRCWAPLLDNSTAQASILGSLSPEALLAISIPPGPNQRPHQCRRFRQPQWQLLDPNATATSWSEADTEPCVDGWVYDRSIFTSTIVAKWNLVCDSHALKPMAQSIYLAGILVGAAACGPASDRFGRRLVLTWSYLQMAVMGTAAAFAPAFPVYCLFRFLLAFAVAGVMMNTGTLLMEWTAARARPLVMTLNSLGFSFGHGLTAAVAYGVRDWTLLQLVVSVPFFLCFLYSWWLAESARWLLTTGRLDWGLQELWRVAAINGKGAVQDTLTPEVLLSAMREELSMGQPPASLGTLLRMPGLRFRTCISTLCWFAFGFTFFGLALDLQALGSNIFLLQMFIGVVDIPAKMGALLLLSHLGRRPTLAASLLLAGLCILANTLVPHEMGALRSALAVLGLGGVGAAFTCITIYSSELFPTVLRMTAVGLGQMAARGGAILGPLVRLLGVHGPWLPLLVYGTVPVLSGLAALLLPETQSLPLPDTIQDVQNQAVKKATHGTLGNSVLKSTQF
Experimental: After 48 h, when the HEK293-URAT1 cells were grown to confluence, the cells were treated by 0.25% trypsin for 1–2 min. Thereafter, the digested cells were diluted to a density of 1.5 × 10^5/mL and inoculated into the 24-well cell culture plates for about 48 h. The HEK293-URAT1 cells were pre-incubated for 10 min in HBSS (Cl^− free) and then incubated in the uptake solution (PBS) containing 5 μM [8-^14C]uric acid (2 μCi/mL) with or without the tested compounds (at a series of concentrations). […] After that, 500 μL of cell lysis was transferred to scintillation vials and solubilized with scintillation solution. The radioactivity in the cells was measured by a liquid scintillation counter (PerkinElmer, Waltham, MA, USA).

Row | SMILES | IC50 [1] [µM] | melting point | Fold more potent than parent lesinurad (URAT1 inhibition) [1]
1 | O=C(O)CCc1nnc(Br)n1Cc1ccc(Br)c2ccccc12 [Compound 1o, Sodium 3-(5-bromo-4-((4-bromonaphth-1-yl)methyl)-4H-1,2,4-triazol-3-yl)propionate] | 0.61 ± 0.07 | – | –
2 | O=C([O-])CCc1nnc(Br)n1-c1ccc(Br)c2ccccc12.[Na+] [Compound 1n, Sodium 3-(5-bromo-4-(4-bromonaphth-1-yl)-4H-1,2,4-triazol-3-yl)propionate] | 0.85 ± 0.12 | 204 °C (dec.) | –
3 | O=C([O-])CCCc1nnc(Br)n1Cc1ccc(Br)c2ccccc12.[Na+] [Compound 1q, Sodium 4-(5-bromo-4-((4-bromonaphth-1-yl)methyl)-4H-1,2,4-triazol-3-yl)butanoate] | 0.23 ± 0.05 | – | 31 fold
4 | CCCc1ccc(-n2c(Br)nnc2CCC(=O)[O-])c2ccccc12.[Na+] [Compound 1j, Sodium 3-(5-bromo-4-(4-n-propylnaphth-1-yl)-4H-1,2,4-triazol-3-yl)propionate] | 8.3 ± 1.1 | 183 °C (dec.) | –
5 | O=C([O-])CCc1nnc(Cl)n1-c1ccc(C2CC2)c2ccccc12.[Na+] [Compound 1b, Sodium 3-(5-chloro-4-(4-cyclopropylnaphth-1-yl)-4H-1,2,4-triazol-3-yl)propionate] | 6.3 ± 0.74 | 135 °C (dec.) | –
6 | CCOc1ccc(-n2c(Br)nnc2CCC(=O)[O-])c2ccccc12.[Na+] [Compound 1m, Sodium 3-(5-bromo-4-(4-ethoxynaphth-1-yl)-4H-1,2,4-triazol-3-yl)propionate] | 11.2 ± 1.3 | 194 °C (dec.) | –
7 | O=C([O-])CCc1nnc(Br)n1-c1ccc(C2CC2)c2ccccc12.[Na+] [Compound 1c, Sodium 3-(5-bromo-4-(4-cyclopropylnaphth-1-yl)-4H-1,2,4-triazol-3-yl)propionate] | 2.4 ± 0.15 | – | three
8 | Cc1ccc(-n2c(Br)nnc2CCC(=O)[O-])c2ccccc12.[Na+] [Compound 1h, Sodium 3-(5-bromo-4-(4-methylnaphth-1-yl)-4H-1,2,4-triazol-3-yl)propionate] | 12.6 ± 1.6 | 155 °C (dec.) | –
9 | COc1nnc(CCC(=O)[O-])n1-c1ccc(C2CC2)c2ccccc12.[Na+] [Compound 1e, Sodium 3-(4-(4-cyclopropylnaphth-1-yl)-5-methoxy-4H-1,2,4-triazol-3-yl)propionate] | > 100 | 133 °C (dec.) | –
10 | O=C([O-])CCc1nnc(I)n1-c1ccc(C2CC2)c2ccccc12.[Na+] [Compound 1d, Sodium 3-(4-(4-cyclopropylnaphth-1-yl)-5-iodo-4H-1,2,4-triazol-3-yl)propionate] | 8.8 ± 1 | 158 °C (dec.) | –
11 | O=C([O-])CCc1nncn1-c1ccc(C2CC2)c2ccccc12.[Na+] [Compound 1a, Sodium 3-(4-(4-cyclopropylnaphth-1-yl)-4H-1,2,4-triazol-3-yl)propionate] | > 100 | 140 °C (dec.) | –
12 | O=C([O-])CCc1nnc(Br)n1-c1cccc2ccccc12.[Na+] [Compound 1g, Sodium 3-(5-bromo-4-(naphth-1-yl)-4H-1,2,4-triazol-3-yl)propionate] | 10.5 ± 1.4 | 182 to 184 °C | –
13 | O=C([O-])CCCCc1nnc(Br)n1Cc1ccc(Br)c2ccccc12.[Na+] [Compound 1r, Sodium 5-(5-bromo-4-((4-bromonaphth-1-yl)methyl)-4H-1,2,4-triazol-3-yl)pentanoate] | 1.24 ± 0.17 | 146 to 149 °C | –
14 | CCOc1nnc(CCC(=O)[O-])n1-c1ccc(C2CC2)c2ccccc12.[Na+] [Compound 1f, Sodium 3-(4-(4-cyclopropylnaphth-1-yl)-5-ethoxy-4H-1,2,4-triazol-3-yl)propionate] | 9.1 ± 1.2 | 101.5 °C (dec.) | –
15 | CCc1ccc(-n2c(Br)nnc2CCC(=O)[O-])c2ccccc12.[Na+] [Compound 1i, Sodium 3-(5-bromo-4-(4-ethylnaphth-1-yl)-4H-1,2,4-triazol-3-yl)propionate] | 8.4 ± 0.98 | 198 °C (dec.) | –
16 | O=C([O-])CCc1nnc(Br)n1CCc1ccc(Br)c2ccccc12.[Na+] [Compound 1p, Sodium 3-(5-bromo-4-(2-(4-bromonaphth-1-yl)ethyl)-4H-1,2,4-triazol-3-yl)propionate] | 34.7 ± 4.9 | 167 °C (dec.) | –
17 | CC(C)c1ccc(-n2c(Br)nnc2CCC(=O)[O-])c2ccccc12.[Na+] [Compound 1k, Sodium 3-(5-bromo-4-(4-isopropylnaphth-1-yl)-4H-1,2,4-triazol-3-yl)propionate] | 1.1 ± 0.21 | 194 °C (dec.) | –
18 | COc1ccc(-n2c(Br)nnc2CCC(=O)[O-])c2ccccc12.[Na+] [Compound 1l, Sodium 3-(5-bromo-4-(4-methoxynaphth-1-yl)-4H-1,2,4-triazol-3-yl)propionate] | 36.6 ± 5.3 | 211 °C (dec.) | –
